Test results taken from patent US20060123492A1, “Methods of identifying modulators of NMUR2-mediated activity” (priority 2003, published 2006).

Experiments:
[1] = test system: wild type mice; test: Tail flick test, effect of morphine in wild type mice; type: in vivo; details: adult male wild type mice, 30 minutes after injection
Description: (§1) Mice were gently held on a platform of an automated apparatus wrapped in a soft cloth. Their tails were exposed and extended in a straight line along a narrow groove. Once the tail was laying flat in the groove, the experimenter activated a high-intensity and heat producing narrow beam of light that was directed at a small spot in the tail. When the animal reached its pain threshold, a spinal reflex caused the tail to “flick” out of the light beam, automatically stopping a timer that started when the beam was activated. Each animal was tested 3 times, on different regions of the tail, and the median latency to “flick” was recorded as the nociceptive threshold. Experiments were performed blind with respect to the animals' genotype. The results are shown in FIGS. 1 and 2 in wild-type, heterozygous, and NMUR2 knock-out mice (FIG. 1) and for male and female mice (FIG. 2).
(§2) Adult male mice were treated with the mu opiate receptor agonist morphine at either 0, 2.5, 5, or 10 mg/kg sub-cutaneously. At each dose, 4 wild type mice and 4 knock-outs were treated. Tail flick latencies were determined 30 minutes after injection of morphine or vehicle, with a maximum flick latency of 15 seconds allowed to prevent tissue damage. […] The difference between the tail flick latencies of the two genotypes at 2.5 mg/kg morphine could not be accounted for by the baseline difference in tail flick latencies normally observed between the wild types and the knock-outs, both because the difference in latency was larger, and because the enhancement of morphine analgesia is significant while the mild baseline analgesia observed in the NmUR2 knock-outs was not.

[2] = test system: NMUR2 knock-out mice; test: Tail flick test, effect of morphine in NMUR2 knock-out mice; type: in vivo; details: adult male NMUR2 knock-out mice, 30 minutes after injection
Description: as §1, §2

SMILES: CN1CC[C@]23c4c5ccc(O)c4O[C@H]2[C@@H](O)C=C[C@H]3[C@H]1C5 [morphine]
- analgesia (tail flick latency) ([1]; 2.5 mg/kg sub-cutaneously): mild analgesia
- analgesia (tail flick latency) ([1]; 5 mg/kg sub-cutaneously): maximal analgesia
- analgesia (tail flick latency) ([1]; 10 mg/kg sub-cutaneously): maximal analgesia
- analgesia (tail flick latency) ([2]; 2.5 mg/kg sub-cutaneously): augmented analgesia
- tail flick latency ([2]; 2.5 mg/kg sub-cutaneously, maximum flick latency of 15 seconds allowed): 15 s
- analgesia (tail flick latency) ([2]; 5 mg/kg sub-cutaneously): maximal analgesia
- analgesia (tail flick latency) ([2]; 10 mg/kg sub-cutaneously): maximal analgesia
